Results: patent US8377470B2, “Non-gelatin soft capsule system” (R.P. Scherer Technologies, LLC, priority 2004, dated 2013)

What was measured:
[1] = Film stability with concentrated salt formulations, starch/gelling carrageenan film; format: physicochemical; conditions: concentrated suspension/solution in film depression, open exposure
Description: (§1) The films were formed and spread over a holding device such that small depressions could be formed in the surface of the film. A depression was formed and subsequently filled with the concentrated suspension of the salt formulation. Simultaneously, two acidic solutions were tested by the same protocol. […] This is well-known in the art to be an extremely aggressive mode of stability testing, resulting in acceleration in the interaction between shell and fill of over 260 times normal rates.

[2] = Film stability with concentrated salt formulations, gelatin film; format: physicochemical; conditions: concentrated suspension/solution in film depression, open exposure
Description: as §1

[3] = sodium or potassium hydroxide required to solubilize acetaminophen at greater than about 27% by weight; cited from earlier work

| SMILES | Test Result After 24 Hours at 40° C.-75% RH, Starch/Gelling Carrageenan film [1] | Test Result After 24 Hours at 40° C.-75% RH, Gelatin film [2] | pH of the PEG solution [3] |
| --- | --- | --- | --- |
| O=C([O-])c1ccccc1C(=O)O.[K+] [Potassium Hydrogen Phthalate] | Pass | Fail |  |
| O=P([O-])([O-])[O-].[Na+].[Na+].[Na+] [Sodium PO4-(tribasic)] | Pass | Fail |  |
| O=C(O)CC(O)(CC(=O)O)C(=O)O [Citric acid] | Fail | Fail |  |
| CC(=O)Nc1ccc(O)cc1 [acetaminophen, N-acetyl-p-aminophenol] |  |  | greater than 12 |
| O=P([O-])([O-])O.[K+].[K+] [Potassium PO4-(dibasic)] | Pass | Fail |  |
| O=C([O-])CC(O)(CC(=O)[O-])C(=O)[O-].[K+].[K+].[K+] [Potassium citrate] | Pass | Fail |  |
| CC(=O)[O-].[K+] [Potassium acetate] | Pass | Fail |  |
| CC(=O)O.N [Ammonium acetate] | Pass | Fail |  |
| O=C(O)C(O)C(O)C(=O)O (centres unmarked) [Tartaric acid] | Fail | Fail |  |
